Assay results reported in patent US5212171A, “Pesticidal heterocyclic compounds” (priority 1990, dated 1993).

system: Tetranychus urticae; test: Acaricidal activity (mite life cycle), Tetranychus urticae; format: in vivo, Tetranychus urticae (glasshouse red spider mite); details: larvae on leaf discs sprayed at 340 liters per hectare; emergence of adults after 7 days
Method: Acaricidal activity of some compounds of formula I was assessed, employing adult female glasshouse red spider mites, Tetranychus urticae (T.u.), by the following procedure.
2 cm diameter leaf discs cut from the leaves of French bean plants were placed, underside uppermost, on 5.5 cm diameter filter papers, kept moist by a cotton wool wick dipped in water.
Each leaf disc was infested with 25 to 30 adult female mites which were removed after 6 hours, leaving bout 50 eggs on each disc. Within 5 days the eggs hatched. The freshly emerged larvae on the leaf discs were sprayed with solutions of test compound made up as in Example 156 above, at a rate equivalent to 340 liters per hectare (3.4×10^-5 m^3 /m^2).
The discs were thereafter kept under normal laboratory conditions (23° C.±2° C., fluctuating humidity and 16 hours day length). After 7 days assessment was made of the number of mites emerging as adults.

SMILES	LC50 (% active ingredient in spray)
O=C(NC(=O)c1c(F)cccc1F)Nc1ccc2c(c1)COC(c1ccc(Cl)cc1Cl)O2 (centres unmarked) [Example 82]	0.00023 % active ingredient in spray
O=C(NC(=O)c1c(F)cccc1F)Nc1ccc2c(c1)COC(c1c(Cl)cccc1Cl)O2 (centres unmarked) [Example 84]	0.00036 % active ingredient in spray
O=C(NC(=O)c1c(F)cccc1F)Nc1ccc2c(c1)COC(c1ccc(C(F)(F)F)cc1Cl)O2 (centres unmarked) [Example 85]	0.00031 % active ingredient in spray
O=C(NC(=O)c1c(F)cccc1F)Nc1ccc2c(c1)COC(c1ccccc1Br)O2 (centres unmarked) [Example 87]	0.0029 % active ingredient in spray
O=C(NC(=O)c1c(F)cccc1F)Nc1ccc2c(c1)COC(c1cccc(Cl)c1Cl)O2 (centres unmarked) [Example 92]	0.085 % active ingredient in spray
O=C(NC(=O)c1c(F)cccc1F)Nc1ccc2c(c1)COC(c1ccccc1C(F)(F)F)O2 (centres unmarked) [Example 93]	0.00022 % active ingredient in spray
O=C(NC(=O)c1c(F)cccc1F)Nc1ccc2c(c1)OC(c1ccc(C(F)(F)F)cc1)O2 (centres unmarked) [Example 134]	0.09 % active ingredient in spray
O=C(NC(=O)c1c(F)cccc1F)Nc1ccc2c(c1)SC(c1ccc(Cl)cc1Cl)O2 (centres unmarked) [Example 142, N-[[[2-(2,4-dichlorophenyl)-1,3-benzoxathiol-5-yl]amino]carbonyl]-2,6-difluorobenzamide]	0.0015 % active ingredient in spray
O=C(NC(=O)c1c(F)cccc1F)Nc1ccc2c(c1)SC(c1ccc(Cl)c(Cl)c1)O2 (centres unmarked) [Example 145]	0.053 % active ingredient in spray
O=C(NC(=O)c1c(F)cccc1F)Nc1ccc2c(c1)SC(c1ccc(F)cc1F)O2 (centres unmarked) [Example 147]	0.05 % active ingredient in spray

system: Trialeurodes vaporariorum; test: whole plant or invertebrate; format: in vivo, Trialeurodes vaporariorum (greenhouse whitefly); details: 144 h, initial test concentration of 0.1% w (1000 ppm), 6 days, read-out: mortality grade T.v.
Method: (§1) Insecticidal activity of compounds of general formula I was assessed against the following pests: […]
Trialeurodes vaporariorum (greenhouse whitefly)
(§2) The test methods employed for each species appear below. In each test, unless otherwise stated, solutions or suspensions of test compound were made up over a range of concentrations in water (initially 0.1% w) containing 10%w acetone and 0.025% w "TRITON X-100" (trade mark) surface active agent (the condensation product of ethylene oxide with an alkyl phenol). These solutions were sprayed at a rate equivalent to 340 liters per hectare (3.4×10^-5 m^3 /m^2) onto Petri dishes containing either test species per se or diet onto which test species were subsequently introduced, as indicated. In some assays leaf discs infested with test species were sprayed whilst other assays involved the spraying of plants which were infested subsequently with test species after the spray solution had dried. The tests were all conducted under normal insectary conditions (23° C.±2° C., fluctuating humidity and light).
Mortality assessments were made as indicated below, in terms of percentage mortality figures. In each test a LC50 (the dosage of active material required to kill half of the test species) for the compound was calculated from the mortality figures and compared with the corresponding LC50 for a standard insecticide, ethyl parathion, in the same test. The results are expressed as toxicity indices thus: [formula] (i) Spodoptera littoralis (7 day)(Sl 7D) Test solutions were sprayed as indicated above onto Petri dishes containing a nutritious diet for Egyptian cotton leafworm larvae. When the spray deposit had dried, each dish was infested with ten 2nd instar larvae. Mortality assessments were made 7 days after spraying.
(iii) Trialeurodes vaporariorum (Tv)
French bean plants (Phaseolus vulgaris) with two fully expanded leaves were placed in a breeding culture of T.vaporariorum, also on French bean plants, which were then disturbed to ensure resettlement on the introduced plants. During the subsequent 24 hour period, eggs were deposited and kept at 27° C., with 14 hours photoperiod. All adult whiteflies were then carefully removed, leaving egg samples of a known age. After eight days the majority of eggs had hatched. Leaf discs containing the newly hatched nymphs were then cut from the leaves and transferred to moist filter paper. The discs were examined under a low-powered microscope to determine the exact number of 1st instar nymphs per disc and to remove any unhatched eggs. On average, 70-100 nymphs were found per disc. The discs were transferred into Petri dishes and sprayed with test solutions as described above. After 6 days percentage mortalities were assessed.

SMILES	mortality at 1000 µg/mL
O=C(NC(=O)c1c(F)cccc1F)Nc1ccc2c(c1)COC(c1ccccc1Cl)O2 (centres unmarked) [Example 80]	40 to 69%
O=C(NC(=O)c1c(F)cccc1F)Nc1ccc2c(c1)COC(c1ccc(Cl)cc1)O2 (centres unmarked) [Example 81]	40 to 69%
O=C(NC(=O)c1c(F)cccc1F)Nc1ccc2c(c1)COC(c1ccc(Cl)c(Cl)c1)O2 (centres unmarked) [Example 83]	40 to 69%
O=C(NC(=O)c1c(F)cccc1F)Nc1ccc2c(c1)COC(c1c(Cl)cccc1Cl)O2 (centres unmarked) [Example 84]	40 to 69%
O=C(NC(=O)c1c(F)cccc1F)Nc1ccc2c(c1)COC(c1ccccc1Br)O2 (centres unmarked) [Example 87]	40 to 69%
O=C(NC(=O)c1c(F)cccc1F)Nc1ccc2c(c1)COC(c1ccc(C(F)(F)F)cc1)O2 (centres unmarked) [Example 88]	40 to 69%
O=C(NC(=O)c1c(F)cccc1F)Nc1ccc2c(c1)COC(c1ccc(OC(F)(F)F)cc1)O2 (centres unmarked) [Example 91]	40 to 69%
O=C(NC(=O)c1c(F)cccc1F)Nc1ccc2c(c1)CSC(c1ccccc1F)O2 (centres unmarked) [Example 96]	40 to 69%
O=C(NC(=O)c1c(F)cccc1F)Nc1ccc2c(c1)CSC(c1ccc(Cl)cc1Cl)O2 (centres unmarked) [Example 98]	40 to 69%
O=C(NC(=O)c1c(F)cccc1F)Nc1ccc2c(c1)CSC(c1c(Cl)cccc1Cl)O2 (centres unmarked) [Example 99]	40 to 69%
O=C(NC(=O)c1c(F)cccc1F)Nc1ccc2c(c1)CSC(c1ccc(F)cc1F)O2 (centres unmarked) [Example 100]	40 to 69%
Cc1ccc(C2Oc3ccc(NC(=O)NC(=O)c4c(F)cccc4F)cc3CS2)cc1 (centres unmarked) [Example 102]	40 to 69%
O=C(NC(=O)c1c(F)cccc1F)Nc1ccc2c(c1)CSC(c1ccccc1C(F)(F)F)O2 (centres unmarked) [Example 103]	40 to 69%
O=C(NC(=O)c1c(F)cccc1F)Nc1ccc2c(c1)CSC(c1ccccc1)O2 (centres unmarked) [Example 104]	40 to 69%
O=C(NC(=O)c1c(F)cccc1F)Nc1ccc2c(c1)COC(c1ccccc1C(F)(F)F)S2 (centres unmarked) [Example 112]	40 to 69%
O=C(NC(=O)c1c(F)cccc1F)Nc1ccc2c(c1)COC(c1c(Cl)cccc1Cl)S2 (centres unmarked) [Example 113]	40 to 69%
O=C(NC(=O)c1c(F)cccc1F)Nc1ccc2c(c1)COC(c1ccccc1Br)S2 (centres unmarked) [Example 115]	70 to 100%
Cc1ccccc1C1OCc2cc(NC(=O)NC(=O)c3c(F)cccc3F)ccc2S1 (centres unmarked) [Example 116]	40 to 69%
O=C(NC(=O)c1c(F)cccc1F)Nc1ccc2c(c1)OC(c1ccccc1)O2 (centres unmarked) [Example 125]	40 to 69%
O=C(NC(=O)c1c(F)cccc1F)Nc1ccc2c(c1)OC(c1ccccc1Cl)O2 (centres unmarked) [Example 126]	40 to 69%
O=C(NC(=O)c1c(F)cccc1F)Nc1ccc2c(c1)OC(c1cccc(Cl)c1)O2 (centres unmarked) [Example 127]	40 to 69%
O=C(NC(=O)c1c(F)cccc1F)Nc1ccc2c(c1)OC(c1ccc(Cl)cc1)O2 (centres unmarked) [Example 128]	40 to 69%
O=C(NC(=O)c1c(F)cccc1F)Nc1ccc2c(c1)OC(c1ccc(F)cc1F)O2 (centres unmarked) [Example 135]	40 to 69%
CCOC(=O)CC1(c2ccccc2)Oc2ccc(NC(=O)NC(=O)c3c(F)cccc3F)cc2O1 (centres unmarked) [Example 140]	40 to 69%
O=C(NC(=O)c1c(F)cccc1F)Nc1ccc2c(c1)SC(c1ccccc1F)O2 (centres unmarked) [Example 143]	40 to 69%
CC1(c2ccc(Cl)c(Cl)c2)Oc2ccc(NC(=O)NC(=O)c3c(F)cccc3F)cc2S1 (centres unmarked) [Example 152]	40 to 69%

system: Spodoptera littoralis; test: whole plant or invertebrate; format: in vivo, Spodoptera littoralis (Egyptian cotton leafworm); details: 168 h, initial test concentration of 0.1% w (1000 ppm), 7 days, read-out: mortality grade S.l.
Method: as §1
Spodoptera littoralis (Egyptian cotton leafworm)
as §2, with “The tests were all conducted under normal insectary conditions (23° C.±2° C., fluctuating humidity and light).” left out
Mortality assessments were made as indicated below, in terms of percentage mortality figures. In each test a LC50 (the dosage of active material required to kill half of the test species) for the compound was calculated from the mortality figures and compared with the corresponding LC50 for a standard insecticide, ethyl parathion, in the same test. The results are expressed as toxicity indices thus: [formula] […]

SMILES	mortality at 1000 µg/mL
O=C(NC(=O)c1c(F)cccc1F)Nc1ccc2c(c1)COC(c1ccc(F)cc1F)S2 (centres unmarked) [Example 108]	70 to 100%
O=C(NC(=O)c1c(F)cccc1F)Nc1ccc2c(c1)COC(c1c(Cl)cccc1Cl)S2 (centres unmarked) [Example 113]	70 to 100%
